Source: patent publication US10906876B2, “Tetrahydroisoquinolines as selective NADPH oxidase 2 inhibitors” (University of Pittsburgh—Of the Commonwealth System of …, priority 2013, dated 2021)

Experiments:
Bovine milk XO = molecular target: T1, Bovine milk XO (Bos taurus, UniProt P80457); assay: Xanthine oxidase assay (Amplex Red); format: biochemical; conditions: compounds at 25 μM and 50 μM (FIG. 4)
T1 construct: Bovine milk XO (grade 1, ammonium sulfate suspension; Sigma-Aldrich); purchased Sigma-Aldrich; host or cells: bovine milk
Description: Bovine milk XO (grade 1, ammonium sulfate suspension; Sigma-Aldrich) was first desalted using PD-10 columns (Sephadex G-25, GE Healthcare Biosciences, Piscataway, N.J.) equilibrated in PBS. XO activity was assayed by measuring H2O2 production using the Amplex® Red assay. Reaction mixture contained: 0.02 U/mL XO, 25 mM Hepes, pH 7.4, containing 0.12 M NaCl, 3 mM KCl, 1 mM MgCl2, 0.1 mM Amplex® Red, and 0.32 U/mL of horse radish peroxidase (HRP), reaction was initiated by addition of 1 mM hypoxanthine. Fluorescence was quantified over time using a Biotek Synergy 4 Hybrid Multi-Mode Microplate Reader.
Data are expressed as % of vehicle control.

[1] = system: rat neonatal cardiomyocytes; assay: Hypertrophy of rat neonatal cardiomyocytes treated with high glucose; format: cell-based; conditions: 25 mM glucose, 25 μM compound
Description: (§1) Cos-Nox2, Cos-Nox1, human fibroblasts were cultured in DMEM, 10% FBS-supplemented media, human pulmonary artery endothelial cells were cultured in EBM2media containing growth factors (Lonza) and rat neonatal cardiomyocytes were cultured in DMEM/F12 (50/50) media supplemented with 5% horse serum, 100 μM BrdU and Insulin-Transferrin-Selenium (ITS, Gibco).
Hypertrophy was assessed by measurement of cardiomyocytes length using ImageJ public domain software (developed by the National Institutes of Health).
To evaluate the pre-clinical potential of compounds 11g and 11h, the effects of high levels of glucose, which induce the generation of reactive oxygen species in cardiomyocytes and may contribute to the development of cardiomyopathy in diabetes, were evaluated. […] Furthermore, both compound 11g and compound 11h were able to reduce cardiomyocyte hypertrophy associated with high glucose challenge (FIG. 16).

[2] = system: human pulmonary artery endothelial cells (HPAEC); assay: ROS production of HPAEC treated with angiotensin II; format: cell-based; conditions: angiotensin II 24 hrs, 25 μM compound, preliminary data
Description: as §1

Nox1 hybrid system = molecular target: T2, Nox1 hybrid system (Homo sapiens, UniProt Q9Y5S8); assay: ROS production of transiently Nox1 hybrid system-transfected Cos cells treated with PMA; format: cell-based; conditions: 10 μM compound
T2 construct: Plasmids encoding full-length human cDNAs for Nox1 (pcDNA3.1-hNox1); expressed in transfected cells; host or cells: Cos cells, transient transfection
T2 sequence (Q9Y5S8 1-564): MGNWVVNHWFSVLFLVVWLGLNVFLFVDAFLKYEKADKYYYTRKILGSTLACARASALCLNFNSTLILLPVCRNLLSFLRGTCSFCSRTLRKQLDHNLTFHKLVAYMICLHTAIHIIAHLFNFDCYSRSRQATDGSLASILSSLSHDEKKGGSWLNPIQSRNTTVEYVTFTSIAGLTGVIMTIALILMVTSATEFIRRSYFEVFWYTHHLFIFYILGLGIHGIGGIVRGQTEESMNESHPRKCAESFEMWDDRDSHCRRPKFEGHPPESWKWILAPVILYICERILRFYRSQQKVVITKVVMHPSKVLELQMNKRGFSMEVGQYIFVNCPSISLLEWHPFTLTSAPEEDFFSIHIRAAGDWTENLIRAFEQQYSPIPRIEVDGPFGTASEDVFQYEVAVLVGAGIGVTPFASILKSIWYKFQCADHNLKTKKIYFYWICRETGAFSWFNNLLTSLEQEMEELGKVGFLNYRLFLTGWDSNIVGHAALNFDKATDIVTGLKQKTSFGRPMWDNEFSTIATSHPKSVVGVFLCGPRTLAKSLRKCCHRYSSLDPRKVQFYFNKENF
Description: Cell transfection was carried out using Lipofectamine LTX and Plus reagent (Invitrogen, Carlsbad, Calif., USA), according to the manufacturer's instructions. COS-22 cells were transiently co-transfected with pcDNA 3.1-hNox1, pCMVsport 6-hNOXA1 and pcDNA3.1-hNoxO1 (COS-Nox1/NOXO1/NOXA1 cells) or with pcDNA3.1/Hygro-hNox4 (COS-Nox4 cells). Cells were used 24 hr after transfection. Adherent cells were harvested by incubating with 0.05% trypsin/EDTA for 5 min at 37° C. Following addition of DMEM/10% FBS to neutralize the trypsin, the cells were pelleted by centrifugation at 1100×g for 5 min at 4° C. and used for the experiments.
Since p47^phox activation is important not only for Nox2 activity but also for Nox1 hybrid system present mainly in human endothelial cells, the effect of compounds 11g and 11h on ROS production of transiently Nox2-transfected (FIG. 13) or Nox1 hybrid system-transfected Cos cells (FIG. 14) treated with phorbol ester (PMA) was evaluated.

[3] = molecular target: T3, p47^phox association with Nox2 (cytochrome b558) (Homo sapiens, UniProt P14598); assay: Co-immunoprecipitation of Nox2/p47phox in Cos-Nox2 cells; format: cell-based; conditions: Cos-Nox2 cells pre-incubated with compound
T3 construct: expressed in transfected cells
T3 sequence (P14598 1-390): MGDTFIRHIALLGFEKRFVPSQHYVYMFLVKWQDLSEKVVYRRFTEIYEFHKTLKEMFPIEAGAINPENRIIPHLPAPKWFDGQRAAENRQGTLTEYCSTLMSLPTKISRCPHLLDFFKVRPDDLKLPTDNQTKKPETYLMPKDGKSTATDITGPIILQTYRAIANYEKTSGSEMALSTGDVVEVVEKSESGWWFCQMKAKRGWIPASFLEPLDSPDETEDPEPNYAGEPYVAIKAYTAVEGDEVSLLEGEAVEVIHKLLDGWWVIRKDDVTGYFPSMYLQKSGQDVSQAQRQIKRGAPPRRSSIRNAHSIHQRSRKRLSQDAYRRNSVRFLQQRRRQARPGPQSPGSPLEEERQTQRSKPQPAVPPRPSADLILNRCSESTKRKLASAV
Description: 300 μg of cell homogenates were diluted in 0.3 ml HBSS buffer and incubated with 1.25 μg of α-p47^phox antibody (Santa Cruz Biotechnology). After overnight incubation at 4° C. with constant agitation, 10 μl of Protein G-Agarose slurry were added to each sample to pull-down p47^phox: antibody complex. Beads were washed, boiled, run on PAGE-SDS gels and then blotted on nitrocellulose membrane. Western blot analysis was carried out using antibodies against p47^phox and Nox2. Bands were visualized using Odyssey software from Licor and then quantified using ImageJ software.
To interrogate a mode of Nox2 inhibition, in silico interaction analysis of pre-existing atomic structures was employed. […] To further investigate this type of interaction and inhibition, co-immunoprecipitation was used and p47^phox association with cytochrome b558 in Cos-Nox2 cells.

T1 sequence (P80457 whole entry): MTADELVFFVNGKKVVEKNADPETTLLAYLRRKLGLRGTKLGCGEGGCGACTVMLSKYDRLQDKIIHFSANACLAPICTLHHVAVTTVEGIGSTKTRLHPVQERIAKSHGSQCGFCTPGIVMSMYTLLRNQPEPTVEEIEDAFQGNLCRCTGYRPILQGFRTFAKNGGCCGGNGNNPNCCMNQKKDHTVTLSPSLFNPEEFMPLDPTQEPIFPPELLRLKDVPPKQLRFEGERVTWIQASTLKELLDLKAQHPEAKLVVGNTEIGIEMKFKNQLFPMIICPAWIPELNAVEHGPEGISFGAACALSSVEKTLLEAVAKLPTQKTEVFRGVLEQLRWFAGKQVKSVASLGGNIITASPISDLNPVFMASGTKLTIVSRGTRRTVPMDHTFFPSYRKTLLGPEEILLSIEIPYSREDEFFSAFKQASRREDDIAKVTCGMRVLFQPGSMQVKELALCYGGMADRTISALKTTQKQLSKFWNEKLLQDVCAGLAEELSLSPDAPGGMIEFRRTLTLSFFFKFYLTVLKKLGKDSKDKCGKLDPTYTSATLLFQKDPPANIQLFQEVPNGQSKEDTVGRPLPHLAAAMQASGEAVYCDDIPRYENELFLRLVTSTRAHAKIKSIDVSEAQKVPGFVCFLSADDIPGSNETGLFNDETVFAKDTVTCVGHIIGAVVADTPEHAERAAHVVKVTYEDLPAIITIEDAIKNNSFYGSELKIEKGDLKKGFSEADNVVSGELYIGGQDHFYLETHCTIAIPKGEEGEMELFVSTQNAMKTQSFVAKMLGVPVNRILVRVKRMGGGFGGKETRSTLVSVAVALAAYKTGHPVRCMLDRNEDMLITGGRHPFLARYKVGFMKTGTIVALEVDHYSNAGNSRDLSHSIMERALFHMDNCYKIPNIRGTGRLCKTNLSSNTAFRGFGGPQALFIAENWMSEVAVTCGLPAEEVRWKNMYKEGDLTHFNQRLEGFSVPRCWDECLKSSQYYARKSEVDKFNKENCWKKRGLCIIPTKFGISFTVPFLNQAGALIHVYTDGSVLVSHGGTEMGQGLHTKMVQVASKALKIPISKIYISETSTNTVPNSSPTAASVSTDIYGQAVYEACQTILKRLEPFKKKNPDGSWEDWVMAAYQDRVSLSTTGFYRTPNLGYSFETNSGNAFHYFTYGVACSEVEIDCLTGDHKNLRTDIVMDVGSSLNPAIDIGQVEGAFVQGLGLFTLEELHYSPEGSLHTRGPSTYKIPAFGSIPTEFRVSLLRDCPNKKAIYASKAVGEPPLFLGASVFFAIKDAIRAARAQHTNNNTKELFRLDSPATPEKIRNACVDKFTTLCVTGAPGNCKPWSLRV

Effect on ROS production by xanthine oxidase (Bovine milk XO)	PMA-stimulated ROS production, Nox1 hybrid system-transfected Cos cells (Nox1 hybrid system)	Attenuation of PMA-promoted p47phox/Nox2 interaction (co-immunoprecipitation) [3] [%]	SMILES	Cardiomyocyte hypertrophy with high glucose challenge [1]	AngII-stimulated ROS production [2]
virtually no effect	inhibited	34.3±6.07	C=C(C)CC1C2c3c(Br)cccc3C(CC2(C)C)N1CCCCC (racemic) [Compound 11g, (±)-(1S,4R,9S)-5-Bromo-3,3-dimethyl-9-(2-methylallyl-10-pentyl-1,2,3,4-tetrahydro-1,4-(epiminomethano)naphthalene]	reduce	differential effect
virtually no effect	did not significantly inhibit	33.45±6.08	C=C(C)CC1C2c3c(Br)cccc3C(CC2(C)C)N1Cc1cccs1 (racemic) [Compound 11h, (±)-(1S,4R,9S)-5-Bromo-3,3-dimethyl-9-(2-methylallyl)-10-(thiophen-2-ylmethyl)-1,2,3,4-tetrahydro-1,4-(epiminomethano)naphthalene]	reduce	differential effect
